Results reported in paper PMC9325707, “Vav2 is a novel APP-interacting protein that regulates APP protein level” (Scientific Reports, 2022).
Where a chain is given by its changes, count along the chain named. Numbers in names are those of the source. Values belong to the molecule of their own block, whether it stands above or below them. Non-standard residues stand in square brackets, D forms with d. Residues, ends and D or L forms follow the SMILES beside them. pY = N[C@@H](Cc1ccc(OP(=O)(O)O)cc1)C(=O)O

Experiments:
Vav2-SH2 domain [1] = biological target: T1, Vav2-SH2 domain (Homo sapiens, UniProt P52735); experiment: ITC binding of APP peptides to Vav2-SH2; conditions: 298 K, 10 mM Tris/HCl, 100 mM NaCl
T1 construct: the DNA fragment encoding the SH2 domain of Vav2 (residues 659–771) was cloned into a pET28a (+) (Novagen) plasmid; 6xHis (N, cleaved yes); made in house; host or cells: Escherichia coli BL21 (DE3)
T1 sequence (P52735 659-771): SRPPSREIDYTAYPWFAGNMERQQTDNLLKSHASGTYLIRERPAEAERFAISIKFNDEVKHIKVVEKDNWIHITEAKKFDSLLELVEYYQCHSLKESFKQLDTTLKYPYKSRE
From the text: For NMR and ITC experiments, the DNA fragment encoding the SH2 domain of Vav2 (residues 659–771) was cloned into a pET28a (+) (Novagen) plasmid as described previously, generating a fusion protein with an N-terminus 6 × His tag. For GST pull-down experiments, the Vav2-SH2 was subcloned into pGEX4T-1 vector. The APP expression plasmid pAPPsw and the Vav2 expression plasmid pCMV5-myc-Vav2 were constructed as previously described[55],[66]. Mutants were generated by PCR mediated site-directed mutagenesis. All the constructs were verified by DNA sequencing.
The recombinant plasmids harboring His-tagged or GST-tagged Vav2-SH2 were transformed into Escherichia coli BL21 (DE3) (Novagen) strain. Cells were grown at 37 °C up to an A600 nm of 0.8, and then were induced with 0.5 mM IPTG at 25 °C for 8 h. […] Protein concentrations were estimated with absorbance spectroscopy using the molar absorption coefficient. […]
ITC experiments were performed at 298 K on a PEAQ-ITC titration calorimeter (MicroCal, Northampton, MA). […] ITC data were analyzed with a single-site binding model using Microcal PEAQ-ITC software.

[2] = biological target: APP pY682 peptide (Homo sapiens) (UniProt P05067); conditions: cited from earlier work
Vav2-SH2 domain [3] = biological target: T1, Vav2-SH2 domain; experiment: NMR titration (2D 1H-15N HSQC) of 15N-labeled Vav2-SH2 with APP peptides; type: binding; conditions: 0.1 mM 15N-Vav2-SH2, 20 mM Tris/HCl, 100 mM NaCl, 3 mM DTT, 90% H2O/10% D2O, pH 7.0, 293 K, 600 MHz; protein:peptide up to 1:3 (APP-pY682) or 1:4 (APP-Y682)
Procedure: The recombinant plasmids harboring His-tagged or GST-tagged Vav2-SH2 were transformed into Escherichia coli BL21 (DE3) (Novagen) strain. Cells were grown at 37 °C up to an A600 nm of 0.8, and then were induced with 0.5 mM IPTG at 25 °C for 8 h. For the production of uniformly ^15N-labeled samples, cells were grown in minimal medium using ^15NH4CL (0.5 g/L) as the sole nitrogen source. ^15N-NH4Cl was purchased from Cambridge Isotope Laboratories, Inc. The His-tagged proteins were purified by a chelated-nickel column followed by Thrombin protease treatment to remove the tag as previous described. The GST and GST fusion proteins were purified using immobilized glutathione. All proteins were further purified on a Superdex75 gel-filtration column (GE Healthcare, Piscataway, NJ, USA). The purity of proteins was confirmed by SDS–PAGE. Protein concentrations were estimated with absorbance spectroscopy using the molar absorption coefficient. […]
The NMR sample of the apo Vav2-SH2 contained 0.1 mM of protein was dissolved in NMR buffer: 20 mM Tris/HCl with 100 mM NaCl, 3 mM DTT in 90% H2O, 10% D2O (pH 7.0). […] A series of ^1H–^15N HSQC spectra were recorded as the titrant gradually titrated into the protein solutions using the Bruker hsqcfpf3gpphwg pulse program. […] NMR data were processed with NMRPipe[67] and analyzed using Sparky3 (Goddard and Kneller, University of California, San Francisco). […]

full-length APPsw = experiment: GST pull-down of full-length APPsw from 20E2 cell lysate; type: binding; conditions: 20E2 cell lysate 0.2 mg, 1 mg GST fusion on glutathione-agarose, 2 h; western blot (C20)
Procedure: The recombinant plasmids harboring His-tagged or GST-tagged Vav2-SH2 were transformed into Escherichia coli BL21 (DE3) (Novagen) strain. Cells were grown at 37 °C up to an A600 nm of 0.8, and then were induced with 0.5 mM IPTG at 25 °C for 8 h. For the production of uniformly ^15N-labeled samples, cells were grown in minimal medium using ^15NH4CL (0.5 g/L) as the sole nitrogen source. ^15N-NH4Cl was purchased from Cambridge Isotope Laboratories, Inc. The His-tagged proteins were purified by a chelated-nickel column followed by Thrombin protease treatment to remove the tag as previous described. The GST and GST fusion proteins were purified using immobilized glutathione. All proteins were further purified on a Superdex75 gel-filtration column (GE Healthcare, Piscataway, NJ, USA). The purity of proteins was confirmed by SDS–PAGE. Protein concentrations were estimated with absorbance spectroscopy using the molar absorption coefficient.
One hundred microliter glutathione-agarose beads were incubated with 1 mg purified GST or indicated GST-SH2 fusions and the mutant GST-SH2^R680A for 2 h at 4 °C in GST binding buffer (20 mM Tris/HCl, pH 7.4, 150 mM NaCl and 1 mM EDTA, 0.5% TritonX-100). […] After washing 4 times with GST binding buffer, beads were boiled in SDS sample buffer, run on 12% SDS–PAGE gel and analyzed by Coomassie or immunoblotting.

Sequence of APP pY682 peptide (Homo sapiens) (P05067 whole entry, looked up, the tested form may be a part): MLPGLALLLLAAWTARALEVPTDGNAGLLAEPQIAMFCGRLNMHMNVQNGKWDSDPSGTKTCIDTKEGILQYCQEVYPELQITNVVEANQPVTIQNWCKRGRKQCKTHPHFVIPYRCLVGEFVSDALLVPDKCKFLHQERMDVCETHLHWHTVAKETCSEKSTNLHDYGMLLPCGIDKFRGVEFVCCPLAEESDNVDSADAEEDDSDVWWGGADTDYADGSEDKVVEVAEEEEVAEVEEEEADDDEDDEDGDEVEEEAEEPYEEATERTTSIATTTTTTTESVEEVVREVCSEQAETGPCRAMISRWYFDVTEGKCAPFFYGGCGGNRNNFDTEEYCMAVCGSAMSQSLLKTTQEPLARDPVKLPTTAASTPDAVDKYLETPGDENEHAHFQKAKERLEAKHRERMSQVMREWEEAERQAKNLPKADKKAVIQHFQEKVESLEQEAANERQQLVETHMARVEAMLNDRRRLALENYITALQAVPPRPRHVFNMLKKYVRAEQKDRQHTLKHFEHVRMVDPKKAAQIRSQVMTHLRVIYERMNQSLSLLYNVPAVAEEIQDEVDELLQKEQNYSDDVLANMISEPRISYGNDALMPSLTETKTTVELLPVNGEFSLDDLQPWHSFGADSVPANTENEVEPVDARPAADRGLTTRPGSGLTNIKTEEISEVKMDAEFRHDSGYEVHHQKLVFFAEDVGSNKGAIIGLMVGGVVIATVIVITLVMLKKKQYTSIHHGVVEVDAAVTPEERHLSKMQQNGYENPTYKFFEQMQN

Kd (Vav2-SH2 domain [1]; pH 7.4, 0.75 mM peptide titrated into 30 μM Vav2-SH2, single-site binding model): 860 nM
Molecule: C[C@@H](O)[C@H](NC(=O)[C@@H]1CCCN1C(=O)[C@H](CC(N)=O)NC(=O)[C@H](CCC(=O)O)NC(=O)[C@H](Cc1ccc(OP(=O)(O)O)cc1)NC(=O)CNC(=O)[C@H](CC(N)=O)NC(=O)[C@@H](N)CCC(N)=O)C(=O)O [APP-pY682] (H-QNG[pY]ENPT-OH)

Molecule: Grb2 SH2 (from UniProt P62993)
Kd [2]: 290 nM

binding in ITC (result in words) (Vav2-SH2 domain [1]; pH 7.4, 0.75 mM peptide titrated into 30 μM Vav2-SH2): no binding
Molecule: QNGYENPT [APP-Y682]
chemical shift perturbations (CSPs) in 1H-15N HSQC of Vav2-SH2 (Vav2-SH2 domain [3]): did not induce any chemical shift perturbations

B1: GST-Vav2-SH2: wild-type GST-Vav2-SH2 protein (protein)
chain: T1 sequence (P52735 659-771)
modifications: left off: GST, end not stated, kept
notes: wild-type GST-Vav2-SH2 protein
binding to full-length APPsw in GST pull-down (result in words) (full-length APPsw): bound selectively to full-length APPsw

B2: R680A mutant: R680A mutant of GST-Vav2-SH2 protein (negative control) (protein)
chain: T1 sequence (P52735 659-771) with R22A
modifications: left off: GST, end not stated, kept
binding to full-length APPsw in GST pull-down (result in words) (full-length APPsw): not GST alone or the R680A mutant bound selectively to full-length APPsw
